Reference: patent US20250281476A1, “EFINACONAZOLE ORAL COMPOSITION” (priority 2020, published 2025)
Values after ≈ are worked out from the molar mass of the structure shown. Where two headings read alike, the source gives them in different places. Blank lines part the entries; values can stand above or below the compound they belong to.

Legend:
in vivo = conditions: for AUC(0-t): AUCt; for concentration at 0.5 h: read-out: Blood voriconazole concentration, Time 0.5 hr; for concentration at 1 h: read-out: Blood voriconazole concentration, Time 1 hr; for concentration at 2 h: read-out: Blood voriconazole concentration, Time 2 hr; for concentration at 4 h: read-out: Blood voriconazole concentration, Time 4 hr; for concentration at 6 h: read-out: Blood voriconazole concentration, Time 6 hr; for concentration at 8 h: read-out: Blood voriconazole concentration, Time 8 hr; for concentration at 10 h: read-out: Blood voriconazole concentration, Time 10 hr
Method: 24 male beagle dogs were divided into 4 groups, 6 animals per group. Voriconazole as a control drug was once administered to the animals via an oral route under fasting conditions. Efinaconazole as a test drug was once administered to the animals via intravenous and oral routes under fasting conditions. Thereafter, the pharmacokinetic (PK) profiles of the drugs were determined to calculate PK parameters of the drugs and evaluate the pharmacokinetics of the drugs. Specific test conditions and methods are as follows.
The test substances were weighed with an electronic balance. Each of the weighed test substances was placed in a glass container and 0.5% methylcellulose in a 1% Tween 80 solution (distilled water) as an excipient was added thereto. The mixture was vortexed and sonicated to prepare a homogeneous test material.
For intravenous administration, the doses of efinaconazole (intravenous administration group G1) were calculated based on the body weights of the animals. To the test substance was added PEG400 as an excipient whose volume corresponded to 30% of the total volume of a final test material. The mixture was vortexed and sonicated for complete dissolution. To the solution was added ethanol in an amount corresponding to 20% of the total volume of the test material, followed by homogenization by sonication. Then, 0.9% saline was added in an amount corresponding to 50% of the total volume of the test material, followed by vortexing and sonication to in situ prepare the test material in a homogeneous state.
• Routes of administration: Intravenous (IV) and oral (PO) • Doses: G1 (Voriconazole)—6 mg/5 ml/kg (PO); G2 (Efinaconazole)—6 mg/5 ml/kg (PO); G3 (Efinaconazole-Polymer)—6 mg/5 ml/kg (PO); G1 (Efinaconazole)—0.5 mg/I ml/kg (IV) • Frequency of administration: Single dose (once daily)—(QD)
4 ml of blood was collected from each point and centrifuged. 500 μl of the plasma supernatant was dispensed in a 1.5 ml EP tube and the remaining plasma was dispensed into a set of 1.5 ml EP tubes. The samples were stored in a deep freezer at −80° C. After completion of the testing, the blood collection records, sample information certificates, dispensing records, clinical symptom observation records, medication/blood collection results, and test samples (plasma samples) were sent to a specialized analysis agency.
After storage in a freezer, the samples were analyzed by LC/MS/MS and their pharmacokinetic parameters were calculated in a noncompartmental manner using “Phoenix WinNonlin (Version 8.2 or higher, Certara L. P)” software.
AUCt, a bioavailability parameter, is the area under the plasma concentration-time curve from the time of administration medication to the last time point of blood collection with a measurable concentration and was calculated by the trapezoidal formula. Cmax is the highest plasma drug concentration read from the plasma drug concentration-time curve of each sample and Tmax is the time taken to reach the highest plasma drug concentration read from the plasma drug concentration-time curve of each sample. AUC∞ is the area under the plasma concentration-time curve from the time of administration to time infinity.

[1] = Stability test of 10% solutions at room temperature and 65° C., purity by HPLC; type: physicochemical; conditions: solution (10%)
Method: The stability of the co-crystal of efinaconazole to temperature and a solution was evaluated and compared with that of efinaconazole by the following experimental method.
A co-crystalline form of efinaconazole was prepared.

[2] = cited from earlier work
[3] = male, beagle, dog, in vivo, 6 mg/kg, Geometric Means
[4] = male, beagle, dog, in vivo, po, 6 mg/kg, Cmax
[5] = male, beagle, dog, in vivo, po, 6 mg/kg, Geometric Means
[6] = male, beagle, dog, in vivo, po, 6 mg/kg, Geometric Means, Cmax
[7] = male, dog, in vivo, 6 mg/kg, beagle dog, fasting, single 6 mg/kg P.O, group Mean (6 animals)
[8] = male, dog, in vivo, 6 mg/kg, beagle dog, fasting, single 6 mg/kg P.O, individual animals
[9] = male, beagle, dog, in vivo, 0.5 mg/kg, Blood efinaconazole concentration, Time 12 hr

- AUCt/AUC∞ (in vivo; beagle dog, fasting, single 6 mg/kg P.O, group Mean (6 animals)): 51.125
- AUC(0-t) (in vivo; [3]): 53500 ng·h/mL
- AUC(0-t) (in vivo; male, beagle, dog, in vivo, po, 6 mg/kg): 53900 ng·h/mL
- AUC(0-inf) (in vivo; male, beagle, dog, in vivo, po, 6 mg/kg, AUC∞): 109000 ng·h/mL
- Cmax (in vivo; [4]): 3670 ng/mL
- AUC(0-t) (in vivo; [5]): 53500 ng·h/mL
- Cmax (in vivo; [6]): 3670 ng/mL
- concentration at 0.053 h (in vivo; male, dog, in vivo, 6 mg/kg, beagle dog, fasting, single 6 mg/kg P.O, group Mean (6 animals), read-out: Blood voriconazole concentration, Time 0.053 hr): 443 ng/mL
- concentration at 0.25 h (in vivo; male, dog, in vivo, 6 mg/kg, beagle dog, fasting, single 6 mg/kg P.O, group Mean (6 animals), read-out: Blood voriconazole concentration, Time 0.25 hr): 2720 ng/mL
- concentration at 0.5 h (in vivo; [7]): 3410 ng/mL
- concentration at 1 h (in vivo; [7]): 3440 ng/mL
- concentration at 2 h (in vivo; [7]): 3090 ng/mL
- concentration at 4 h (in vivo; [7]): 2950 ng/mL
- concentration at 6 h (in vivo; [7]): 2610 ng/mL
- concentration at 8 h (in vivo; [7]): 2460 ng/mL
- concentration at 10 h (in vivo; [7]): 2270 ng/mL
- concentration at 12 h (in vivo; male, dog, in vivo, 6 mg/kg, beagle dog, fasting, single 6 mg/kg P.O, group Mean (6 animals), read-out: Blood voriconazole concentration, Time 12 hr): 2180 ng/mL
- concentration at 24 h (in vivo; male, dog, in vivo, 6 mg/kg, beagle dog, fasting, single 6 mg/kg P.O, group Mean (6 animals), read-out: Blood voriconazole concentration, Time 24 hr): 1500 ng/mL
- concentration at 0.5 h (in vivo; [8]): 3280 ng/mL
- concentration at 1 h (in vivo; [8]): 3280 ng/mL
- concentration at 2 h (in vivo; [8]): 3000 ng/mL
- concentration at 4 h (in vivo; [8]): 2940 ng/mL
- concentration at 6 h (in vivo; [8]): 2660 ng/mL
- concentration at 8 h (in vivo; [8]): 2430 ng/mL
- concentration at 10 h (in vivo; [8]): 2250 ng/mL
- concentration at 12 h (in vivo; male, dog, in vivo, 6 mg/kg, beagle dog, fasting, single 6 mg/kg P.O, individual animals, read-out: Blood voriconazole concentration, Time 12 hr): 2160 ng/mL
- concentration at 24 h (in vivo; male, dog, in vivo, 6 mg/kg, beagle dog, fasting, single 6 mg/kg P.O, individual animals, read-out: Blood voriconazole concentration, Time 24 hr): 1470 ng/mL
- Cmax (in vivo; male, dog, in vivo, po, 6 mg/kg, beagle dog, fasting, single 6 mg/kg P.O, individual animals, read-out: Cmax): 3520 ng/mL
Compound: C[C@@H](c1ncncc1F)[C@](O)(Cn1cncn1)c1ccc(F)cc1F [Voriconazole]

Compound: C=C1CCN([C@H](C)[C@](O)(Cn2cncn2)c2ccc(F)cc2F)CC1 [Efinaconazole]
- HPLC (%) After 1 week ([1]; 65° C.): 99.55%
- Related substances (%) After 1 week ([1]; 65° C.): 0.45%
- HPLC (%) After 2 weeks ([1]; 65° C.): 99.46%
- Related substances (%) After 2 weeks ([1]; 65° C.): 0.54%
- HPLC (%) After 4 weeks ([1]; 65° C.): 98.47%
- Related substances (%) After 4 weeks ([1]; 65° C.): 1.53%
- HPLC (%) After 1 week ([1]; room temp.): 99.73%
- Related substances (%) After 1 week ([1]; room temp.): 0.27%
- HPLC (%) After 2 weeks ([1]; room temp.): 99.61%
- Related substances (%) After 2 weeks ([1]; room temp.): 0.39%
- HPLC (%) After 4 weeks ([1]; room temp.): 99.60%
- Related substances (%) After 4 weeks ([1]; room temp.): 0.40%
- water solubility [2]: ~610 µg/mL (≈ 1750 µM)
- Blood efinaconazole concentration, Time 8 hr (in vivo; dog, in vivo, 0.5 mg/kg): BLQ
- Blood efinaconazole concentration, Time 10 hr (in vivo; dog, in vivo, 0.5 mg/kg): BLQ
- Blood efinaconazole concentration, Time 12 hr (in vivo; dog, in vivo, 0.5 mg/kg): BLQ
- Blood efinaconazole concentration, Time 24 hr (in vivo; dog, in vivo, 0.5 mg/kg): BLQ
- bioavailability compared with other antifungals when administered orally (in vivo; dog, in vivo, po): higher than those of other antifungals, including voriconazole and itraconazole
- concentration at 0.053 h (in vivo; male, beagle, dog, in vivo, 0.5 mg/kg, Blood efinaconazole concentration, Time 0.053 hr): 262 ng/mL
- concentration at 0.25 h (in vivo; male, beagle, dog, in vivo, 0.5 mg/kg, Blood efinaconazole concentration, Time 0.25 hr): 168 ng/mL
- concentration at 12 h (in vivo; [9]): 1.36 ng/mL
- concentration at 12 hr (in vivo; [9]): 3.52 ng/mL
- concentration at 24 h (in vivo; male, beagle, dog, in vivo, 0.5 mg/kg, Blood efinaconazole concentration, Time 24 hr): 0 ng/mL
- AUC(0-t) (in vivo; male, beagle, dog, in vivo, 0.5 mg/kg, Geometric Means): 245 ng·h/mL
- Cmax (in vivo; male, beagle, dog, in vivo, 0.5 mg/kg, Geometric Means, Cmax): 318 ng/mL
- bioavailability (in vivo; male, beagle, dog, in vivo, 6 mg/kg): 51.4 ± 24.6%
- concentration at 2 hr (in vivo; male, beagle, dog, in vivo, 6 mg/kg, Blood efinaconazole concentration, Time 2 hr): 177 ng/mL
- concentration at 4 hr (in vivo; male, beagle, dog, in vivo, 6 mg/kg, Blood efinaconazole concentration, Time 4 hr): 64.9 ng/mL
- concentration at 6 hr (in vivo; male, beagle, dog, in vivo, 6 mg/kg, Blood efinaconazole concentration, Time 6 hr): 27.5 ng/mL
- AUC(0-t) (in vivo; [3]): 1440 ng·h/mL
- Cmax (in vivo; male, beagle, dog, in vivo, iv, 0.5 mg/kg, Cmax): 322 ± 58.6 ng/mL
- Tmax (in vivo; male, beagle, dog, in vivo, iv, 0.5 mg/kg, Tmax): 4.98 min
- Cmax (in vivo; [4]): 925 ± 236 ng/mL
- AUC(0-t) (in vivo; [5]): 1440 ng·h/mL
- Cmax (in vivo; [6]): 904 ng/mL
